Measured values as given in PubChem BioAssay AID1963983 (Molecular Pharmacology Branch, DTP, NCI, 2024).

Test system: 186277-243-T-J2-PDC multi-cell spheroid viability
Assay: Anticancer human tumor 186277-243-T-J2-PDC patient-derived colon adenocarcinoma cell line growth inhibition [PI3K]
Settings: for viability, T/C: stronger effect = lower value
In short: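 Stroma-containing spheroids: tumor line, pooled-donor HUVEC, hMSC. Treatments: targeted agents with PI3K inhibitors. Dosing: clinically relevant, half-log spacing, 10 microM ceiling without known Cmax. Read-out: cell viability.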

[1] = curve of first compound, second compound 0.0316 µM
[2] = curve of first compound, second compound 0.1 µM
[3] = curve of first compound, second compound 0.316 µM
[4] = curve of first compound, second compound 1 µM
[5] = curve of first compound, second compound 3.16 µM
[6] = curve of first compound, second compound 10 µM
[7] = second compound 0.0316 µM, first compound 0.0316 µM
[8] = second compound 0.0316 µM, first compound 0.1 µM
[9] = second compound 0.0316 µM, first compound 0.316 µM
[10] = second compound 0.0316 µM, first compound 1 µM
[11] = second compound 0.0316 µM, first compound 3.16 µM
[12] = second compound 0.0316 µM, first compound 10 µM
[13] = second compound 0.1 µM, first compound 0.0316 µM
[14] = second compound 0.1 µM, first compound 0.1 µM
[15] = second compound 0.1 µM, first compound 0.316 µM
[16] = second compound 0.1 µM, first compound 1 µM
[17] = second compound 0.1 µM, first compound 3.16 µM
[18] = second compound 0.1 µM, first compound 10 µM
[19] = second compound 0.316 µM, first compound 0.0316 µM
[20] = second compound 0.316 µM, first compound 0.1 µM
[21] = second compound 0.316 µM, first compound 0.316 µM
[22] = second compound 0.316 µM, first compound 1 µM
[23] = second compound 0.316 µM, first compound 3.16 µM
[24] = second compound 0.316 µM, first compound 10 µM
[25] = second compound 1 µM, first compound 0.0316 µM
[26] = second compound 1 µM, first compound 0.1 µM
[27] = second compound 1 µM, first compound 0.316 µM
[28] = second compound 1 µM, first compound 1 µM
[29] = second compound 1 µM, first compound 3.16 µM
[30] = second compound 1 µM, first compound 10 µM
[31] = second compound 3.16 µM, first compound 0.0316 µM
[32] = second compound 3.16 µM, first compound 0.1 µM
[33] = second compound 3.16 µM, first compound 0.316 µM
[34] = second compound 3.16 µM, first compound 1 µM
[35] = second compound 3.16 µM, first compound 3.16 µM
[36] = second compound 3.16 µM, first compound 10 µM
[37] = second compound 10 µM, first compound 0.0316 µM
[38] = second compound 10 µM, first compound 0.1 µM
[39] = second compound 10 µM, first compound 0.316 µM
[40] = second compound 10 µM, first compound 1 µM
[41] = second compound 10 µM, first compound 3.16 µM
[42] = second compound 10 µM, first compound 10 µM
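Further: spheroids exposed to compounds for seven days before viability reading.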
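Wherever viability, T/C is given: 100% = DMSO vehicle control viability.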

SMILES: CC1(C)CCC(Nc2ncc(C(F)(F)F)c(-c3c[nH]c4c(P(C)(C)=O)c(C#N)ccc34)n2)CN1 (stereo not given) + CC(Nc1ncnc2nc[nH]c12)c1cc2cccc(Cl)c2c(=O)n1-c1ccccc1
- IC50 [1]: 4130 nM
- IC50 [2]: 4350 nM
- IC50 [3]: 4090 nM
- IC50 [4]: 3950 nM
- IC50 [5]: 4000 nM
- IC50 [6]: 865 nM
- viability, T/C [7]: 77.7%
- viability, T/C [8]: 61.8%
- viability, T/C [9]: 58%
- viability, T/C [10]: 59.9%
- viability, T/C [11]: 66.5%
- viability, T/C [12]: 1.23%
- viability, T/C [13]: 92.4%
- viability, T/C [14]: 57.1%
- viability, T/C [15]: 62%
- viability, T/C [16]: 64.4%
- viability, T/C [17]: 68.6%
- viability, T/C [18]: 1.55%
- viability, T/C [19]: 81.3%
- viability, T/C [20]: 57.7%
- viability, T/C [21]: 58.3%
- viability, T/C [22]: 64.1%
- viability, T/C [23]: 64.2%
- viability, T/C [24]: 0.31%
- viability, T/C [25]: 75.4%
- viability, T/C [26]: 61%
- viability, T/C [27]: 60.8%
- viability, T/C [28]: 63%
- viability, T/C [29]: 61.9%
- viability, T/C [30]: 0.97%
- viability, T/C [31]: 80.1%
- viability, T/C [32]: 69.1%
- viability, T/C [33]: 63.4%
- viability, T/C [34]: 67.2%
- viability, T/C [35]: 63%
- viability, T/C [36]: 0.64%
- viability, T/C [37]: 72%
- viability, T/C [38]: 59.5%
- viability, T/C [39]: 55.1%
- viability, T/C [40]: 53.8%
- viability, T/C [41]: 30.2%
- viability, T/C [42]: 1.26%

SMILES: Cn1nccc1Nc1nccc(-c2ccn(C(CO)c3ccc(Cl)c(F)c3)c(=O)c2)n1 (stereo not given) + CC(Nc1ccc2c(c1)OCCn1cc(N3C(=O)OCC3C(F)F)nc1-2)C(N)=O
- IC50 (curve of first compound, second compound 0.00316 µM): 1870 nM
- IC50 (curve of first compound, second compound 0.01 µM): 1770 nM
- IC50 [1]: 1470 nM
- IC50 [2]: 377 nM
- IC50 [3]: 74.7 nM
- IC50 [4]: < 31.6 nM
- viability, T/C (second compound 0.00316 µM, first compound 0.0316 µM): 105%
- viability, T/C (second compound 0.00316 µM, first compound 0.1 µM): 114%
- viability, T/C (second compound 0.00316 µM, first compound 0.316 µM): 113%
- viability, T/C (second compound 0.00316 µM, first compound 1 µM): 69.3%
- viability, T/C (second compound 0.00316 µM, first compound 3.16 µM): 37.2%
- viability, T/C (second compound 0.00316 µM, first compound 10 µM): 22.8%
- viability, T/C (second compound 0.01 µM, first compound 0.0316 µM): 111%
- viability, T/C (second compound 0.01 µM, first compound 0.1 µM): 121%
- viability, T/C (second compound 0.01 µM, first compound 0.316 µM): 109%
- viability, T/C (second compound 0.01 µM, first compound 1 µM): 67.3%
- viability, T/C (second compound 0.01 µM, first compound 3.16 µM): 33.5%
- viability, T/C (second compound 0.01 µM, first compound 10 µM): 22%
- viability, T/C [7]: 103%
- viability, T/C [8]: 110%
- viability, T/C [9]: 98.4%
- viability, T/C [10]: 61.1%
- viability, T/C [11]: 28.1%
- viability, T/C [12]: 20.9%
- viability, T/C [13]: 124%
- viability, T/C [14]: 86.5%
- viability, T/C [15]: 54.2%
- viability, T/C [16]: 28.9%
- viability, T/C [17]: 16.4%
- viability, T/C [18]: 7.14%
- viability, T/C [19]: 70.4%
- viability, T/C [20]: 44.5%
- viability, T/C [21]: 20.3%
- viability, T/C [22]: 15.9%
- viability, T/C [23]: 9.67%
- viability, T/C [24]: 4.2%
- viability, T/C [25]: 38.1%
- viability, T/C [26]: 29.4%
- viability, T/C [27]: 14.2%
- viability, T/C [28]: 9.05%
- viability, T/C [29]: 10.6%
- viability, T/C [30]: 3.67%

SMILES: CNC(=O)c1ccc(N2C(=S)N(c3ccc(C#N)c(C(F)(F)F)c3)C(=O)C2(C)C)cc1F + Cc1nc(NC(=O)N2CCCC2C(N)=O)sc1-c1ccnc(C(C)(C)C(F)(F)F)c1
- IC50 [1]: > 10000 nM
- IC50 [2]: > 10000 nM
- IC50 [3]: > 10000 nM
- IC50 [4]: > 10000 nM
- IC50 [5]: > 10000 nM
- IC50 [6]: < 31.6 nM
- viability, T/C [7]: 83.5%
- viability, T/C [8]: 90%
- viability, T/C [9]: 102%
- viability, T/C [10]: 91.9%
- viability, T/C [11]: 103%
- viability, T/C [12]: 109%
- viability, T/C [13]: 106%
- viability, T/C [14]: 92.5%
- viability, T/C [15]: 109%
- viability, T/C [16]: 100%
- viability, T/C [17]: 114%
- viability, T/C [18]: 95.4%
- viability, T/C [19]: 97.1%
- viability, T/C [20]: 95.5%
- viability, T/C [21]: 92%
- viability, T/C [22]: 115%
- viability, T/C [23]: 102%
- viability, T/C [24]: 86.1%
- viability, T/C [25]: 106%
- viability, T/C [26]: 96%
- viability, T/C [27]: 111%
- viability, T/C [28]: 105%
- viability, T/C [29]: 103%
- viability, T/C [30]: 86%
- viability, T/C [31]: 62.7%
- viability, T/C [32]: 62.6%
- viability, T/C [33]: 66.4%
- viability, T/C [34]: 66.7%
- viability, T/C [35]: 70.1%
- viability, T/C [36]: 58.7%
- viability, T/C [37]: 13.9%
- viability, T/C [38]: 17.7%
- viability, T/C [39]: 14.7%
- viability, T/C [40]: 14%
- viability, T/C [41]: 15.5%
- viability, T/C [42]: 13.8%

SMILES: C=CC(=O)N1CCN(c2nc(=O)n(-c3c(C)ccnc3C(C)C)c3nc(-c4c(O)cccc4F)c(F)cc23)C(C)C1 (stereo not given)
- viability, T/C (compound 0.0316 µM): 98.1% [middle of 4 runs]
- viability, T/C (compound 0.1 µM): 92.8% [middle of 4 runs]
- viability, T/C (compound 0.316 µM): 98% [middle of 4 runs]
- viability, T/C (compound 1 µM): 102% [middle of 4 runs]
- viability, T/C (compound 3.16 µM): 108% [middle of 4 runs]
- viability, T/C (compound 10 µM): 90.6% [middle of 4 runs]
- IC50 (curve of compound): > 10000 nM

SMILES: CC(C)n1nc(-c2ccc3oc(N)nc3c2)c2c(N)ncnc21 + CC(Nc1ncnc2nc[nH]c12)c1cc2cccc(Cl)c2c(=O)n1-c1ccccc1
- IC50 [1]: 63.4 nM
- IC50 [2]: 59.2 nM
- IC50 [3]: 61.7 nM
- IC50 [4]: 56.1 nM
- IC50 [5]: 47.8 nM
- IC50 [6]: 47.2 nM
- viability, T/C (second compound 0.0316 µM, first compound 0.000316 µM): 86.4%
- viability, T/C (second compound 0.0316 µM, first compound 0.001 µM): 96%
- viability, T/C (second compound 0.0316 µM, first compound 0.00316 µM): 108%
- viability, T/C (second compound 0.0316 µM, first compound 0.01 µM): 90.2%
- viability, T/C [7]: 81.5%
- viability, T/C [8]: 29.2%
- viability, T/C (second compound 0.1 µM, first compound 0.000316 µM): 112%
- viability, T/C (second compound 0.1 µM, first compound 0.001 µM): 101%
- viability, T/C (second compound 0.1 µM, first compound 0.00316 µM): 96.7%
- viability, T/C (second compound 0.1 µM, first compound 0.01 µM): 97.1%
- viability, T/C [13]: 80.3%
- viability, T/C [14]: 25.3%
- viability, T/C (second compound 0.316 µM, first compound 0.000316 µM): 105%
- viability, T/C (second compound 0.316 µM, first compound 0.001 µM): 103%
- viability, T/C (second compound 0.316 µM, first compound 0.00316 µM): 89.1%
- viability, T/C (second compound 0.316 µM, first compound 0.01 µM): 103%
- viability, T/C [19]: 79.6%
- viability, T/C [20]: 28.6%
- viability, T/C (second compound 1 µM, first compound 0.000316 µM): 96.7%
- viability, T/C (second compound 1 µM, first compound 0.001 µM): 108%
- viability, T/C (second compound 1 µM, first compound 0.00316 µM): 102%
- viability, T/C (second compound 1 µM, first compound 0.01 µM): 96.3%
- viability, T/C [25]: 72.5%
- viability, T/C [26]: 27.4%
- viability, T/C (second compound 3.16 µM, first compound 0.000316 µM): 95%
- viability, T/C (second compound 3.16 µM, first compound 0.001 µM): 90.8%
- viability, T/C (second compound 3.16 µM, first compound 0.00316 µM): 95.4%
- viability, T/C (second compound 3.16 µM, first compound 0.01 µM): 92.2%
- viability, T/C [31]: 64.9%
- viability, T/C [32]: 23.5%
- viability, T/C (second compound 10 µM, first compound 0.000316 µM): 89.7%
- viability, T/C (second compound 10 µM, first compound 0.001 µM): 94.5%
- viability, T/C (second compound 10 µM, first compound 0.00316 µM): 78%
- viability, T/C (second compound 10 µM, first compound 0.01 µM): 80.5%
- viability, T/C [37]: 69.7%
- viability, T/C [38]: 17.6%
